Reference: patent US7985753B2, “Substituted pyrazolo[1,5-A]pyrimidines as metabotropic glutamate receptor modulators” (MERZ PHARMA GmbH & Co. KGaA, priority 2006, dated 2011)

Experiments:
[1] = target: metabotropic glutamate receptor (mGluR5) (Homo sapiens, UniProt P41594); assay: Cytosolic calcium studies with stably transfected cells (FLIPR); type: cell-based; design: expressed in transfected cells; host or cells: CHO-K1 cells, IPTG-inducible expression; conditions: CHO-K1 cells expressing human mGluR5; agonist L-quisqualic acid; read-out: mGluR5_FLIPR_h_CHO_NAM IC50
Experimental: Cytosolic Calcium Studies with Stably Transfected Cells:
Chinese hamster ovary cells (CHO-K1 cells), stably transfected for inducible expression of a human metabotropic glutamate receptor mGluR5, are seeded into black clear bottom 96 well plates at a density of 35.000 cells per well. The standard growth medium used (Dulbecco's modified Eagle Medium, DMEM plus L-proline) contains the appropriate inducer isopropyl-β-D-thiogalactopyranosid (IPTG) to achieve optimal receptor expression. One day after seeding the growth medium is exchanged for reconstituted Ca-Kit (Molecular Devices, USA) and incubated for one hour. Ca-Kit is reconstituted in an assay buffer containing 20 mM HEPES pH 7.4, glutamic-pyruvate transaminase, pyridoxal phosphate and sodium pyruvate in Hank's balanced salt solution (HBBS). Agonistic compounds to the receptor elicit increases in cytosolic calcium which can be measured as increases in fluorescence signals by use of a fluorescence imaging plate reader (Molecular Devices).
(§1) The fluorescence signal increase after addition of agonist reflects the increase of cytosolic calcium. Inconsistencies in the amount of cells per well are normalised by using the spatial uniformity correction of the FLIPR software. The mean of replicated temporal data (n=3-5) is calculated and used for graphical representation. For the evaluation of the pharmacology, the calcium changes in response to different concentrations of agonist or antagonist are determined using a maximum minus minimum (MaxMin) calculation.
(§2) All responses (RFU-values) are determined as percentage of control (=maximum response). EC50 and IC50 are calculated according the logistic equation using GraFit 5.0 (Erithacus Software, GB) or Prism 4.0 (GraphPad Software, USA).

mGluR5 receptors = target: T1, mGluR5 receptors (Rattus norvegicus, UniProt P31424); assay: Cytosolic calcium studies with astrocytes (astrocyte culture test, FLIPR); type: cell-based; conditions: rat primary astrocytes; L-quisqualate (100 nM); read-out: mGluR5_FLIPRr_rpA IC50
T1 construct: endogenous in cells; host or cells: primary astrocytes from neocortex of Sprague-Dawley rat pups
Experimental: Primary astrocyte cultures are prepared from cortices of newborn rats as described by Booher and Sensenbrenner (1972, Neurobiology 2(3):97-105). Briefly, Sprague-Dawley rat pups (2-4 d old) are decapitated and neocortices are dissected, disintegrated with a nylon filter (pore size 80 μm) and carefully triturated. The cell suspension is plated on poly-D-lysine pre-coated flasks (Costar, Netherlands) and cultivated in Dulbecco's Modified Eagle's Medium (DMEM, Invitrogen, Germany) supplemented with 10% foetal calf serum (FCS, Sigma, Germany), 4 mM glutamine and 50 μg/ml gentamycin (both Biochrom, Germany) at 37° C. in a humidified atmosphere of 5% CO2/95% air for 7 d with exchanging the medium at day 2 and 6.
After 7 days in vitro (DIV), cells are shaken overnight at 250 rpm to remove oligodendrocytes and microglia. The next day, astrocytes are rinsed twice with CMF-PBS (calcium- and magnesium-free phosphate buffered saline, Biochrom, Germany), trypsinized and subplated on poly-D-lysine pre-coated 96-well plates (Greiner, Germany) at a density of 40,000 cells/well. 24 h after establishing the secondary culture the astrocytes are rinsed with PBS^++ (phosphate buffered saline, Biochrom, Germany), and fed with astrocyte-defined medium (ADM) consisting of DMEM containing 1×G^5-supplement (Invitrogen, Germany), 0.5 μg/ml heparan sulfate, and 1.5 μg/ml fibronectin (both Sigma, Germany) (Miller et al., (1993) Brain Res. 618(1):175-8). 3 d later the medium is exchanged and the cells incubated for another 2-3 d, so that at the time of experiments astrocytes are 14-15 DIV.
The increase of cytosolic calcium after stimulation with the mGluR5 agonist L-quisqualate is measured using a fluorometric imaging plate reader (FLIPR) and the Ca-Kit (both Molecular Devices). Prior to addition of agonist or antagonist the medium is aspirated and cells are loaded for 2 h at RT with 150 μl of loading buffer consisting of Ca-sensitive dye reconstituted in sodium chloride (123 mM), potassium chloride (5.4 mM), magnesium chloride (0.8 mM), calcium chloride (1.8 mM), D-glucose (15 mM), and HEPES (20 mM), pH 7.3. Subsequently, plates are transferred to FLIPR to detect calcium increase with the addition of L-quisqualate (100 nM) measured as relative fluorescence units (RFU). If antagonists are tested, these compounds are pre-incubated for 10 minutes at RT before addition of the respective agonist.
as §1, §2

[2] = target: T2, transmembrane allosteric modulatory sites of mGluR5 receptors in cortical membranes (Rattus norvegicus, UniProt P31424); assay: [^3H]-MPEP binding assay in rat cortical membranes; conditions: read-out: mGluR5_M_MPEP_r_CTX_IC50
T2 construct: from tissue; host or cells: rat brain cortex membranes
Experimental: Male Sprague-Dawley rats (200-250 g) are decapitated and their brains are removed rapidly. The cortex is dissected and homogenized in 20 volumes of ice-cold 0.32 M sucrose using a glass-Teflon homogenizer. The homogenate is centrifuged at 1000×g for 10 minutes. The pellet is discarded and the supernatant centrifuged at 20,000×g for 20 minutes. The resulting pellet is re-suspended in 20 volumes of distilled water and centrifuged for 20 minutes at 8000×g. Then the supernatant and the buffy coat are centrifuged at 48,000×g for 20 minutes in the presence of 50 mM Tris-HCl, pH 8.0. The pellet is then re-suspended and centrifuged two to three more times at 48,000×g for 20 minutes in the presence of 50 mM Tris-HCl, pH 8.0. All centrifugation steps are carried out at 4° C. After resuspension in 5 volumes of 50 mM Tris-HCl, pH 8.0 the membrane suspension is frozen rapidly at −80° C.
On the day of assay the membranes are thawed and washed four times by resuspension in 50 mM Tris-HCl, pH 8.0 and centrifugation at 48,000×g for 20 minutes and finally re-suspended in 50 mM Tris-HCl, pH 7.4. The amount of protein in the final membrane preparation (500-700 μg/ml) is determined according to the method of Lowry (Lowry O. H. et al. 1951. J. Biol. Chem. 193, 256-275).
Alternatively, assays are performed with [^3H]-MMPEP (2-(3-methoxyphenylethynyl)-6-methylpyridine hydrochloride) as radioligand. The incubations are continued at room temperature for 60 minutes (equilibrium is achieved under the conditions used). […] Incubations are terminated using a Millipore filter system. The samples are rinsed twice with 4 ml of ice-cold assay buffer over glass fibre filters (Schleicher & Schuell, Germany) under a constant vacuum. Following separation and rinse, the filters are placed into scintillation liquid (5 ml Ultima Gold, Perkin Elmer, Germany) and radioactivity retained on the filters is determined with a conventional liquid scintillation counter (Canberra Packard, Germany).

Chain of metabotropic glutamate receptor (mGluR5) (P41594 21-1212): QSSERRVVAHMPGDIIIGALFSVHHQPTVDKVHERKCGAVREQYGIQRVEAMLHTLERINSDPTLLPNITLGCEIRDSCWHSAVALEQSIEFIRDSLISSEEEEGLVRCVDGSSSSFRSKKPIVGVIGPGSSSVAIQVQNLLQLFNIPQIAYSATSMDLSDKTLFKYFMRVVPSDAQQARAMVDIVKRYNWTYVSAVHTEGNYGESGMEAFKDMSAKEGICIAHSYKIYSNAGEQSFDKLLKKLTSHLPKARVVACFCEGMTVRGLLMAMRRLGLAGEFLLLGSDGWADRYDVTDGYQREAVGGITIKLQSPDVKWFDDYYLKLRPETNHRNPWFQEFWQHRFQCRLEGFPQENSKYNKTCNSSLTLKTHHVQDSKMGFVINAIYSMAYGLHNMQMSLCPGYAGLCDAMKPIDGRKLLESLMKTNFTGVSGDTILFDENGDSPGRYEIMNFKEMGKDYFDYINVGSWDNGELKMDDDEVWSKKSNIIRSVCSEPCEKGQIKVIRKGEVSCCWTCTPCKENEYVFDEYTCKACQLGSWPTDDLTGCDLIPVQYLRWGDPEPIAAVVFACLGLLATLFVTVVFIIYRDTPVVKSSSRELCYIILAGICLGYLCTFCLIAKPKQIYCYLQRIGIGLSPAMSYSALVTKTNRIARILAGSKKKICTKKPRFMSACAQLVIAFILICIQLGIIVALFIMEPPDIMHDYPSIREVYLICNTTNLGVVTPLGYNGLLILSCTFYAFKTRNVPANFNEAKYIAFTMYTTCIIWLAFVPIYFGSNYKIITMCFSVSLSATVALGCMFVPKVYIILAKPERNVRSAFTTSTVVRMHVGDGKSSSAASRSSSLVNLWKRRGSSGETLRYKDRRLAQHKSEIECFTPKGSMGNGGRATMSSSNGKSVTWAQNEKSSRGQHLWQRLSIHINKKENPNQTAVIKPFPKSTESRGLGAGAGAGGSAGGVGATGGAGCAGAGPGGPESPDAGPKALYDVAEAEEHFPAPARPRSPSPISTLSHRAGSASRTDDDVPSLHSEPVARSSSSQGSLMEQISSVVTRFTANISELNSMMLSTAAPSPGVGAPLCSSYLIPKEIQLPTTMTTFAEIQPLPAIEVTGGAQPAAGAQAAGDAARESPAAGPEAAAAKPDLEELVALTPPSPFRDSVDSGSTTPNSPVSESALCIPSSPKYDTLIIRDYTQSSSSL
T1 sequence (P31424 21-1203): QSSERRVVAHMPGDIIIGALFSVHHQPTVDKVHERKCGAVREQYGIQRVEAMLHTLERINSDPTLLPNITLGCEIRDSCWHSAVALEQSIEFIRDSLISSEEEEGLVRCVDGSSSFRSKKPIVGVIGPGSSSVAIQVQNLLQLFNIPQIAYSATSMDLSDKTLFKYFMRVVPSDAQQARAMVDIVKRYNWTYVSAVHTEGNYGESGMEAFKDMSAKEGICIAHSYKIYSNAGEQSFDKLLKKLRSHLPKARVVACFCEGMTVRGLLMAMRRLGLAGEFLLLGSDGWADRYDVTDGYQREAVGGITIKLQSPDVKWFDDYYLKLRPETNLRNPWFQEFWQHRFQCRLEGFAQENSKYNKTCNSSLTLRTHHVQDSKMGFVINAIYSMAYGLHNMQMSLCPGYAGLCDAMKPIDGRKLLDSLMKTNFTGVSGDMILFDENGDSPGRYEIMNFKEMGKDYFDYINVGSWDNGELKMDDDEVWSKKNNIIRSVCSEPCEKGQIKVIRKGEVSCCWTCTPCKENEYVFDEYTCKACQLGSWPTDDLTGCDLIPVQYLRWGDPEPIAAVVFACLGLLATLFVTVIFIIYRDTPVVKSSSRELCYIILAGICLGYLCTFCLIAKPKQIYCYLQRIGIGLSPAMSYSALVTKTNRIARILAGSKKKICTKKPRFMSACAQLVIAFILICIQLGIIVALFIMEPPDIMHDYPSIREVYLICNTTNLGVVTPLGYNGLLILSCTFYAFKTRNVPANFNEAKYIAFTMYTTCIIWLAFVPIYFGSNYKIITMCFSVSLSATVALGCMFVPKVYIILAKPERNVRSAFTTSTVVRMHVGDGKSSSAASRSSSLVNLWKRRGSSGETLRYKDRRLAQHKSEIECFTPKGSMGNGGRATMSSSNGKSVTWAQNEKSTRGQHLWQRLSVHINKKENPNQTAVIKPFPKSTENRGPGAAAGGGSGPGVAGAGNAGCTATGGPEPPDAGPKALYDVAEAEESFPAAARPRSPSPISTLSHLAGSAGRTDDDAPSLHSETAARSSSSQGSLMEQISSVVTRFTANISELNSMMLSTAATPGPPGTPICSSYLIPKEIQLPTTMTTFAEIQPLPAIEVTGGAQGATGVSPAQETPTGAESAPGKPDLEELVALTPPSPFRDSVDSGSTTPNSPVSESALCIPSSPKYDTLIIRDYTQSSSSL
T2 sequence (P31424 21-1203): as above

An IC50 [1] of 267 nM was found for `COc1cc2c(cc1O)CCN(C(=O)c1cc3ncc(Br)cn3n1)C2C` (stereo not drawn) [Example 1, (6-Bromo-pyrazolo[1,5-a]pyrimidin-2-yl)-(6-hydroxy-7-methoxy-1-methyl-3,4-dihydro-1H-isoquinolin-2-yl)-methanone] in this work.
An IC50 [1] of 43.8 nM was found for `CC1c2cc(F)ccc2CCN1C(=O)c1cc2ncc(Br)cn2n1` (stereo not drawn) [drawing 434, (6-Bromo-pyrazolo[1,5-a]pyrimidin-2-yl)-(7-fluoro-1-methyl-3,4-dihydro-1H-isoquinolin-2-yl)-methanone] in this work.
An IC50 [1] of 56.5 nM was found for `CC1c2cccc(F)c2CCN1C(=O)c1cc2ncc(Br)cn2n1` (stereo not drawn) [drawing 435, (6-Bromo-pyrazolo[1,5-a]pyrimidin-2-yl)-(5-fluoro-1-methyl-3,4-dihydro-1H-isoquinolin-2-yl)-methanone] in this work.
An IC50 [1] of 66.3 nM was found for `CC1c2ccc(F)cc2CCN1C(=O)c1cc2ncc(Cl)cn2n1` (stereo not drawn) [drawing 436, (6-Chloro-pyrazolo[1,5-a]pyrimidin-2-yl)-(6-fluoro-1-methyl-3,4-dihydro-1H-isoquinolin-2-yl)-methanone] in this work.
An IC50 [1] of 101 nM was found for `CC1CN(C(=O)c2cc3ncc(Cl)cn3n2)C(C)c2ccccc21` (stereo not drawn) [drawing 437, (6-Chloro-pyrazolo[1,5-a]pyrimidin-2-yl)-(1,4-dimethyl-3,4-dihydro-1H-isoquinolin-2-yl)-methanone] in this work.
An IC50 [1] of 161 nM was found for `CC1CN(C(=O)c2cc3ncc(Br)cn3n2)C(C)c2ccccc21` (stereo not drawn) [drawing 438, (6-Bromo-pyrazolo[1,5-a]pyrimidin-2-yl)-(1,4-dimethyl-3,4-dihydro-1H-isoquinolin-2-yl)-methanone] in this work.
An IC50 [1] of 159 nM was found for `COc1ccc2c(c1)CCN(C(=O)c1cc3ncc(Br)cn3n1)C2C` (stereo not drawn) [drawing 439, (6-Bromo-pyrazolo[1,5-a]pyrimidin-2-yl)-(6-methoxy-1-methyl-3,4-dihydro-1H-isoquinolin-2-yl)-methanone] in this work.
An IC50 [1] of 155 nM was found for `COc1ccc2c(c1)CCN(C(=O)c1cc3ncc(Cl)cn3n1)C2C` (stereo not drawn) [drawing 440, (6-Chloro-pyrazolo[1,5-a]pyrimidin-2-yl)-(6-methoxy-1-methyl-3,4-dihydro-1H-isoquinolin-2-yl)-methanone] in this work.
An IC50 [1] of 178 nM was found for `CC1c2cccc(Br)c2CCN1C(=O)c1cc2ncc(Cl)cn2n1` (stereo not drawn) [drawing 441, (5-Bromo-1-methyl-3,4-dihydro-1H-isoquinolin-2-yl)-(6-chloro-pyrazolo[1,5-a]pyrimidin-2-yl)-methanone] in this work.
An IC50 [1] of 167 nM was found for `O=C(c1cc2ncc(Cl)cn2n1)N1CCc2ncc(Br)cc2C1` [drawing 442, (3-Bromo-7,8-dihydro-5H-[1,6]naphthyridin-6-yl)-(6-chloro-pyrazolo[1,5-a]pyrrimidin-2-yl)-methanone] in this work.
An IC50 (mGluR5 receptors) of 43 nM was found for `COc1cc2c(cc1O)CCN(C(=O)c1cc3ncc(Br)cn3n1)C2C` (stereo not drawn) [drawing 443, 2-[(6-bromopyrazolo[1,5-a]pyrimidin-2-yl)carbonyl]-7-methoxy-1-methyl-1,2,3,4-tetrahydro-6-isoquinolinol] in this work.
An IC50 (mGluR5 receptors) of 46 nM was found for `CC1c2cc(F)ccc2CCN1C(=O)c1cc2ncc(Br)cn2n1` (stereo not drawn) [drawing 444, (6-Bromo-pyrazolo[1,5-a]pyrimidin-2-yl)-(7-fluoro-1-methyl-3,4-dihydro-1H-isoquinolin-2-yl)-methanone] in this work.
An IC50 (mGluR5 receptors) of 17 nM was found for `CC1c2cccc(F)c2CCN1C(=O)c1cc2ncc(Br)cn2n1` (stereo not drawn) [drawing 445, (6-Bromo-pyrazolo[1,5-a]pyrimidin-2-yl)-(5-fluoro-1-methyl-3,4-dihydro-1H-isoquinolin-2-yl)-methanone] in this work.
An IC50 (mGluR5 receptors) of 47 nM was found for `CC1c2ccc(F)cc2CCN1C(=O)c1cc2ncc(Cl)cn2n1` (stereo not drawn) [drawing 446, (6-Chloro-pyrazolo[1,5-a]pyrimidin-2-yl)-(6-fluoro-1-methyl-3,4-dihydro-1H-isoquinolin-2-yl)-methanone] in this work.
An IC50 (mGluR5 receptors) of 64 nM was found for `CC1CN(C(=O)c2cc3ncc(Cl)cn3n2)C(C)c2ccccc21` (stereo not drawn) [drawing 447, (6-Chloro-pyrazolo[1,5-a]pyrimidin-2-yl)-(1,4-dimethyl-3,4-dihydro-1H-isoquinolin-2-yl)-methanone] in this work.
An IC50 (mGluR5 receptors) of 83 nM was found for `CC1CN(C(=O)c2cc3ncc(Br)cn3n2)C(C)c2ccccc21` (stereo not drawn) [drawing 448, (6-Bromo-pyrazolo[1,5-a]pyrimidin-2-yl)-(1,4-dimethyl-3,4-dihydro-1H-isoquinolin-2-yl)-methanone] in this work.
An IC50 (mGluR5 receptors) of 62 nM was found for `COc1ccc2c(c1)CCN(C(=O)c1cc3ncc(Br)cn3n1)C2C` (stereo not drawn) [drawing 449, (6-Bromo-pyrazolo[1,5-a]pyrimidin-2-yl)-(6-methoxy-1-methyl-3,4-dihydro-1H-isoquinolin-2-yl)-methanone] in this work.
An IC50 (mGluR5 receptors) of 69 nM was found for `COc1ccc2c(c1)CCN(C(=O)c1cc3ncc(Cl)cn3n1)C2C` (stereo not drawn) [drawing 450, (6-Chloro-pyrazolo[1,5-a]pyrimidin-2-yl)-(6-methoxy-1-methyl-3,4-dihydro-1H-isoquinolin-2-yl)-methanone] in this work.
An IC50 (mGluR5 receptors) of 65 nM was found for `CC1c2cccc(Br)c2CCN1C(=O)c1cc2ncc(Cl)cn2n1` (stereo not drawn) [drawing 451, (5-Bromo-1-methyl-3,4-dihydro-1H-isoquinolin-2-yl)-(6-chloro-pyrazolo[1,5-a]pyrimidin-2-yl)-methanone] in this work.
An IC50 (mGluR5 receptors) of 48 nM was found for `O=C(c1cc2ncc(Cl)cn2n1)N1CCc2ncc(Br)cc2C1` [drawing 452, (3-Bromo-7,8-dihydro-5H-[1,6]naphthyridin-6-yl)-(6-chloro-pyrazolo[1,5-a]pyrimiddin-2-yl)-methanone] in this work.
An IC50 [2] of 60 nM was found for `COc1cc2c(cc1O)CCN(C(=O)c1cc3ncc(Br)cn3n1)C2C` (stereo not drawn) [drawing 453, 2-[(6-bromopyrazolo[1,5-a]pyrimidin-2-yl)carbonyl]-7-methoxy-1-methyl-1,2,3,4-tetrahydro-6-isoquinolinol] in this work.
